According to BigSolDB 2.1:

CC(=O)N1CCN(c2ccc(O)cc2)CC1
solubility (mole fraction)
Settings | 283.15 K | 288.15 K | 293.15 K | 298.15 K | 303.15 K | 308.15 K | 313.15 K | 318.15 K | 323.15 K
in 2-butoxyethanol | 0.00309 | 0.00373 | 0.00457 | 0.00537 | 0.00617 | 0.00726 | 0.00852 | 0.0102 | 0.0118
in 2-ethoxyethanol | 0.00486 | 0.0059 | 0.00705 | 0.00829 | 0.00963 | 0.0112 | 0.0134 | 0.0156 | 0.0179
in 2-methoxyethanol | 0.00715 | 0.00822 | 0.00968 | 0.0114 | 0.0133 | 0.0153 | 0.0181 | 0.0212 | 0.0242
in 2-propoxyethanol | 0.00403 | 0.00474 | 0.00574 | 0.00686 | 0.00813 | 0.00951 | 0.011 | 0.0128 | 0.015
in acetonitrile | 0.001 | 0.00124 | 0.0015 | 0.00181 | 0.00217 | 0.00259 | 0.00304 | 0.00359 | 0.00433
in ethanol | 0.00218 | 0.00273 | 0.00328 | 0.00396 | 0.00467 | 0.00551 | 0.00634 | 0.00749 | 0.00887
in ethylene glycol | 0.000479 | 0.000658 | 0.000921 | 0.00123 | 0.00167 | 0.00225 | 0.00293 | 0.00405 | 0.00538
in isobutanol | 0.00108 | 0.00141 | 0.00172 | 0.00214 | 0.00251 | 0.00292 | 0.00353 | 0.00415 | 0.00508
in isopropanol | 0.00132 | 0.00165 | 0.00204 | 0.00263 | 0.00327 | 0.00418 | 0.00526 | 0.00636 | 0.00796
in methanol | 0.00286 | 0.00346 | 0.00411 | 0.00485 | 0.00581 | 0.00679 | 0.00806 | 0.00952 | 0.0111
in n-butanol | 0.00119 | 0.00151 | 0.00186 | 0.00232 | 0.00298 | 0.00392 | 0.00488 | 0.00612 | 0.00765
in n-propanol | 0.00179 | 0.00206 | 0.00238 | 0.00306 | 0.00372 | 0.00459 | 0.00561 | 0.00683 | 0.00829
